Assay results: patent publication US20230265151A1, “GIP/GLP1 CO-AGONIST COMPOUNDS” (priority 2020, published 2023)
Read-outs that look alike come from different tables or passages of the source.

Columns and labels:
[1] = molecular target: T1, human GLP-1 receptor (hGLP-1R) (Homo sapiens, UniProt P43220); assay: [125I]-GLP-1 binding, SPA with membranes of HEK293 cells expressing hGLP-1R; details: human GLP-1R; geometric mean (SEM, n); read-out: Binding Affinity Ki, nM (SEM, n) hGLP-1R
T1 construct: expressed in transfected cells; crude membranes
T1 sequence (P43220 24-463): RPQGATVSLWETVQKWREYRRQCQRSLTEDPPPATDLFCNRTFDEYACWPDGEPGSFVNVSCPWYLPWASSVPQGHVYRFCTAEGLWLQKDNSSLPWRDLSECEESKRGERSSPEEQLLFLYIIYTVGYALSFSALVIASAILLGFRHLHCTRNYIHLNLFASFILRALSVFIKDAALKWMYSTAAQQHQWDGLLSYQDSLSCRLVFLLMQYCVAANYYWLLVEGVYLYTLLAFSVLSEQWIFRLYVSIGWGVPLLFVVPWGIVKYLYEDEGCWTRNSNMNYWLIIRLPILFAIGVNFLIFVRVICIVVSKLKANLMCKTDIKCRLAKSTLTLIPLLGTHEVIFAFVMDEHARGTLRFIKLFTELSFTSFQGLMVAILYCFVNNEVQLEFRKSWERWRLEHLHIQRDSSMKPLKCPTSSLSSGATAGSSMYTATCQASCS

[2] = molecular target: hGLP-1R (Homo sapiens, UniProt P43220); assay: Functional cAMP formation (HTRF) in HEK-293 clonal cells expressing hGLP-1R, 0.1% bovine casein, without or with 1.0% human serum albumin; assay type: cell-based; set-up: expressed in transfected cells; details: for EC50: geometric mean, read-out: hGLP-1R EC50, nM (SEM, n); for Emax: percent of maximal response to GLP-1(7-36)NH2, read-out: hGLP-1R Emax, % ± SEM
Sequence of hGLP-1R (P43220 24-463): as above
Outline: (§1)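 Cells were stimulated with peptide for 30 min at 37° C, then lysed in buffer carrying cAMP-d2 and anti-cAMP Eu3+-cryptate for a competitive HTRF read after at least 60 min at room temperature. The 665/620 nm ratio was converted to nM cAMP against a standard curve.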

[3] = molecular target: T2, hGIPR (Homo sapiens, UniProt P48546); assay: Functional cAMP formation (HTRF) in HEK-293 clonal cells expressing hGIPR, 0.1% bovine casein, without or with 1.0% human serum albumin; assay type: cell-based; details: 37° C.; for EC50: geometric mean, read-out: hGIPR EC50, nM (SEM, n); for Emax: read-out: hGIPR Emax, % ± SEM
T2 construct: expressed in transfected cells
T2 sequence (P48546 22-466): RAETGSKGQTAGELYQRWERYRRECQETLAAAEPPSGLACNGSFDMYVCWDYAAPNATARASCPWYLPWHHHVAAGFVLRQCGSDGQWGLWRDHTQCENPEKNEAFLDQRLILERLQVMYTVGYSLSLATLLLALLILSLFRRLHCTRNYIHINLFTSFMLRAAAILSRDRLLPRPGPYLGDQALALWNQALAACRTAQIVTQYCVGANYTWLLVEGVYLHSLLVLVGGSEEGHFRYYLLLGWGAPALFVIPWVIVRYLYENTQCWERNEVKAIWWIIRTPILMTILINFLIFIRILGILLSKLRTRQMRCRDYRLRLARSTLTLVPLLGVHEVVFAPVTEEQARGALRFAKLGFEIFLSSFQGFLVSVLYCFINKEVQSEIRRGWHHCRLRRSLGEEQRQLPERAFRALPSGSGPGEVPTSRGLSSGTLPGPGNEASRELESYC
Outline: as §1

[4] = molecular target: T3, hGCGR (Homo sapiens, UniProt P47871); assay: Functional cAMP formation (HTRF) in HEK-293 clonal cells expressing hGCGR, 0.1% bovine casein, without or with 1.0% human serum albumin; assay type: cell-based; details: read-out: hGCGR EC50, nM (SEM, n)
T3 construct: expressed in transfected cells
T3 sequence (P47871 26-477): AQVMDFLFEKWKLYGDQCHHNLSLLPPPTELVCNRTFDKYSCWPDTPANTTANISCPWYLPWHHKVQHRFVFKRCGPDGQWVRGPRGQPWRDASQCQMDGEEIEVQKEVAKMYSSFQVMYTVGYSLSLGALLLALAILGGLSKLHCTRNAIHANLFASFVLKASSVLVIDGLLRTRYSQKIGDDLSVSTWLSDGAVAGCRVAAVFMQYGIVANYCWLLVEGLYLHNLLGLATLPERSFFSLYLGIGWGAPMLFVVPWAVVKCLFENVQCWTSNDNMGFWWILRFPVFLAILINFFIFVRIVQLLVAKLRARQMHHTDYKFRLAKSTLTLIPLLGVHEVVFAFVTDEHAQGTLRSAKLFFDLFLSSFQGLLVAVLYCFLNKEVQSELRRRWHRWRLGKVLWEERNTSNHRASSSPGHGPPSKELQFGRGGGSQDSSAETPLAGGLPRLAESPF
Outline: as §1

[5] = molecular target: T4, human GIP receptor (hGIPR) (Homo sapiens, UniProt P48546); assay: [125I]-GIP binding, SPA with membranes of CHO cells expressing hGIPR; details: human GIPR; geometric mean (SEM, n); read-out: Binding Affinity Ki, nM (SEM, n) hGIPR
T4 construct: expressed in transfected cells; crude membranes
T4 sequence (P48546 22-466): T2 sequence (P48546 22-466)

[6] = 0.1% bovine casein and 1.0% human serum albumin, 37° C.
[7] = 0.1% bovine casein and 1.0% human serum albumin
[8] = HEK293, 0.1% bovine casein and 1.0% human serum albumin, percent of maximal response to GIP(1-42)NH2
[9] = 0.1% bovine casein and 1.0% human serum albumin, 37° C., geometric mean
[10] = cAMP, incubated at 37° C., 0.1% bovine casein (no human serum albumin), geometric mean

SMILES | Ki [1] | EC50 [2, 6] | EC50 ([2]; cAMP, incubated at 37° C., 0.1% bovine casein (no human serum albumin)) | EC50 [3, 7] | Emax [3, 8] | EC50 [4, 9] | EC50 [4, 10] | Ki [5] | Emax ([2]; HEK293, 0.1% bovine casein and 1.0% human serum albumin, 37° C.) | Emax ([3]; HEK293, percent of maximal response to GIP(1-42)NH2, 0.1% bovine casein, arithmetic mean) | Emax ([2]; HEK293, cAMP, 37° C., 0.1% bovine casein and 1.0% human serum albumin) | Emax ([2]; HEK293, cAMP, 37° C., 0.1% bovine casein, arithmetic mean) | EC50 ([2]; cAMP, 37° C., 0.1% bovine casein (no human serum albumin)) | Emax ([3]; HEK293, cAMP, 0.1% bovine casein and 1.0% human serum albumin, percent of maximal response to GIP(1-42)NH2) | EC50 ([3]; cAMP, 0.1% bovine casein (no human serum albumin)) | EC50 ([4]; cAMP, 37° C., 0.1% bovine casein (no human serum albumin), geometric mean) | EC50 ([4]; cAMP, 37° C., 0.1% bovine casein and 1.0% human serum albumin, geometric mean (SEM, n))
CCCCCCCCCCCC(=O)N[C@@H](CCC(=O)NCCOCCOCC(=O)NCCOCCOCC(=O)NCCCC[C@H](NC(=O)CNC(=O)CNC(=O)[C@H](CCC(=O)O)NC(=O)[C@@H](NC(=O)[C@H](CC(C)C)NC(=O)[C@](C)(Cc1ccc(O)cc1)NC(=O)[C@@H](CCC(=O)O)NC(=O)[C@@H](NC(=O)[C@H](Cc1ccccc1)NC(=O)[C@H](CCC(=O)O)NC(=O)C(C)(C)NC(=O)[C@H](CCC(N)=O)NC(=O)[C@H](C)NC(=O)[C@H](CCCCNC(=O)COCCOCCNC(=O)COCCOCCNC(=O)CC[C@H](NC(=O)CCCCCCCCCCC)C(=O)O)NC(=O)[C@H](CCCN)NC(=O)[C@H](CC(=O)O)NC(=O)[C@H](CC(C)C)NC(=O)[C@](C)(CC(C)C)NC(=O)[C@@H](NC(=O)[C@H](CO)NC(=O)[C@H](Cc1ccncc1)NC(=O)[C@H](CC(=O)O)NC(=O)[C@H](CO)NC(=O)[C@@H](NC(=O)[C@](C)(Cc1ccccc1F)NC(=O)[C@@H](NC(=O)CNC(=O)[C@H](CCC(=O)O)NC(=O)C(C)(C)NC(=O)[C@@H](N)Cc1ccc(O)cc1)[C@@H](C)O)[C@@H](C)O)[C@@H](C)CC)[C@@H](C)CC)[C@@H](C)CC)C(=O)N[C@@H](CO)C(=O)N[C@@H](CO)C(=O)NCC(=O)N[C@@H](C)C(=O)N1CCC[C@H]1C(=O)N1CCC[C@H]1C(=O)N1CCC[C@H]1C(=O)N[C@@H](CO)C(N)=O)C(=O)O [Example 5] | 0.154 nM | 4.78 nM | 0.057 nM | 0.372 nM | 91.2 ± 3.65% | > 9950 nM | > 9150 nM | 0.0309 nM | – | – | – | – | – | – | – | – | –
CCCCCCCCCCCC(=O)N[C@@H](CCC(=O)NCCOCCOCC(=O)NCCOCCOCC(=O)NCCCC[C@H](NC(=O)[C@H](CO)NC(=O)[C@@H]1CCCN1C(=O)[C@@H]1CCCN1C(=O)[C@@H]1CCCN1C(=O)[C@H](C)NC(=O)CNC(=O)[C@H](CO)NC(=O)[C@H](CO)NC(=O)[C@@H]1CCCN1C(=O)CNC(=O)CNC(=O)[C@H](CCC(=O)O)NC(=O)[C@@H](NC(=O)[C@H](CC(C)C)NC(=O)[C@](C)(Cc1ccc(O)cc1)NC(=O)[C@@H](CCC(=O)O)NC(=O)[C@@H](NC(=O)[C@H](Cc1ccccc1)NC(=O)[C@H](CCC(=O)O)NC(=O)C(C)(C)NC(=O)[C@H](CCC(N)=O)NC(=O)[C@H](C)NC(=O)[C@H](CCCCNC(=O)COCCOCCNC(=O)COCCOCCNC(=O)CC[C@H](NC(=O)CCCCCCCCCCC)C(=O)O)NC(=O)[C@H](CCCN)NC(=O)[C@H](CC(=O)O)NC(=O)[C@H](CC(C)C)NC(=O)[C@](C)(CC(C)C)NC(=O)[C@@H](NC(=O)[C@H](CO)NC(=O)[C@H](Cc1ccncc1)NC(=O)[C@H](CC(=O)O)NC(=O)[C@H](CO)NC(=O)[C@@H](NC(=O)[C@](C)(Cc1ccccc1F)NC(=O)[C@@H](NC(=O)CNC(=O)[C@H](CCC(=O)O)NC(=O)C(C)(C)NC(=O)[C@@H](N)Cc1ccc(O)cc1)[C@@H](C)O)[C@@H](C)O)[C@@H](C)CC)[C@@H](C)CC)[C@@H](C)CC)C(N)=O)C(=O)O [Example 141] | 0.194 nM | 5.78 nM | – | 0.379 nM | 96 ± 7.42% | > 9950 nM | > 9950 nM | 0.0291 nM | 115 ± 2.04% | 98.8 ± 1.09% | – | – | – | – | – | – | –
CC[C@H](C)[C@H](NC(=O)[C@H](CC(C)C)NC(=O)[C@](C)(Cc1ccc(O)cc1)NC(=O)[C@H](CCCCNC(=O)COCCOCCNC(=O)COCCOCCNC(=O)CC[C@H](NC(=O)CCCCCCCCCCCCC(=O)O)C(=O)O)NC(=O)[C@@H](NC(=O)[C@H](Cc1ccccc1)NC(=O)[C@H](CCCN)NC(=O)C(C)(C)NC(=O)[C@H](CCC(N)=O)NC(=O)[C@H](C)NC(=O)[C@H](CCC(N)=O)NC(=O)[C@H](CCCN)NC(=O)[C@H](CC(=O)O)NC(=O)[C@H](CC(C)C)NC(=O)[C@](C)(CC(C)C)NC(=O)[C@@H](NC(=O)C(C)(C)NC(=O)[C@H](Cc1ccncc1)NC(=O)[C@H](CC(=O)O)NC(=O)[C@H](CO)NC(=O)[C@@H](NC(=O)[C@](C)(Cc1ccccc1F)NC(=O)[C@@H](NC(=O)CNC(=O)[C@H](CCC(=O)O)NC(=O)C(C)(C)NC(=O)[C@@H](N)Cc1ccc(O)cc1)[C@@H](C)O)[C@@H](C)O)[C@@H](C)CC)[C@@H](C)CC)C(=O)N[C@@H](CCCCNC(=O)COCCOCCNC(=O)COCCOCCNC(=O)CC[C@H](NC(=O)CCCCCCCCCCCCC(=O)O)C(=O)O)C(=O)NCC(=O)NCC(=O)N1CCC[C@H]1C(=O)N[C@@H](CO)C(=O)N[C@@H](CO)C(=O)NCC(=O)N[C@@H](C)C(=O)N1CCC[C@H]1C(=O)N1CCC[C@H]1C(=O)N1CCC[C@H]1C(=O)N[C@@H](CO)C(N)=O [Example 391] | 0.346 nM | – | – | – | – | – | – | 0.0279 nM | – | – | 105% | 109% | 0.167 nM | 88.3% | 0.0101 nM | > 9950 nM | > 9950 nM
CCCCCCCCCCCCCCCC(=O)N[C@@H](CCC(=O)NCCOCCOCC(=O)NCCOCCOCC(=O)NCCCC[C@H](NC(=O)[C@H](CCCN)NC(=O)[C@H](CC(=O)O)NC(=O)[C@H](CC(C)C)NC(=O)[C@](C)(CC(C)C)NC(=O)[C@@H](NC(=O)[C@H](CO)NC(=O)[C@H](Cc1ccncc1)NC(=O)[C@H](CC(=O)O)NC(=O)[C@H](CO)NC(=O)[C@@H](NC(=O)[C@](C)(Cc1ccccc1F)NC(=O)[C@@H](NC(=O)CNC(=O)[C@H](CCC(=O)O)NC(=O)C(C)(C)NC(=O)[C@@H](N)Cc1ccc(O)cc1)[C@@H](C)O)[C@@H](C)O)[C@@H](C)CC)C(=O)N[C@@H](C)C(=O)N[C@@H](CCC(N)=O)C(=O)NC(C)(C)C(=O)N[C@@H](CCC(=O)O)C(=O)N[C@@H](Cc1ccccc1)C(=O)N[C@H](C(=O)N[C@H](CCC(=O)O)C(=O)N[C@@](C)(Cc1ccc(O)cc1)C(=O)N[C@@H](CC(C)C)C(=O)N[C@H](C(=O)N[C@@H](CCCCNC(=O)COCCOCCNC(=O)COCCOCCNC(=O)CC[C@H](NC(=O)CCCCCCCCCCCCCCC)C(=O)O)C(=O)NCC(=O)NCC(=O)N1CCC[C@H]1C(=O)N[C@@H](CO)C(=O)N[C@@H](CO)C(=O)NCC(=O)N[C@@H](C)C(=O)N1CCC[C@H]1C(=O)N1CCC[C@H]1C(=O)N1CCC[C@H]1C(=O)N[C@@H](CO)C(N)=O)[C@@H](C)CC)[C@@H](C)CC)C(=O)O [Example 23] | 0.251 nM | 1.98 nM | – | 0.623 nM | 95.3 ± 0.863% | > 9950 nM | > 9950 nM | 0.0238 nM | – | – | – | – | – | – | – | – | –
